Test results: ChEMBL document CHEMBL1201862, “PubChem BioAssay data set” (2004)
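48-hour exposure; five concentrations; linearly interpolated endpoints. The concentration for 50% growth inhibition is given as GI50.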 Active and inactive are the calls of the source. Cut-off read from the data, not from the text of the source: active = GI50 up to about 1.1 µM and inactive = higher.

What was measured:
Assay in all cases: growth of human tumour cells (NCI), 48 h
[1] = test system: A549
[2] = test system: CCRF-CEM
[3] = test system: COLO 205
[4] = test system: HCC 2998
[5] = test system: HCT-15
[6] = test system: HOP-62
[7] = test system: HOP-92
[8] = test system: KM12
[9] = test system: MCF7
[10] = test system: NCI-H226
[11] = test system: NCI-H23
[12] = test system: OVCAR-5
[13] = test system: OVCAR-8
[14] = test system: RPMI-8226
[15] = test system: SF-539
[16] = test system: SK-MEL-5
[17] = test system: SN12C
[18] = test system: SNB-19
[19] = test system: UO-31
[20] = test system: NCI-H460

SMILES	GI50 [1]	GI50 [2]	GI50 [3]	GI50 [4]	GI50 [5] [µM]	GI50 [6]	GI50 [7]	GI50 [8]	GI50 [9]	GI50 [10]	GI50 [11]	GI50 [12]	GI50 [13]	GI50 [14]	GI50 [15]	GI50 [16]	GI50 [17]	GI50 [18]	GI50 [19]	GI50 [20]
O=C(NNCC(O)COc1ccccc1)c1ccccc1 (stereo not given)	> 100 µM (inactive)	> 100 µM (inactive)	> 100 µM (inactive)	> 100 µM (inactive)	> 100	> 100 µM (inactive)	> 100 µM (inactive)	> 100 µM (inactive)	> 100 µM (inactive)	> 100 µM (inactive)	> 100 µM (inactive)	> 100 µM (inactive)	> 100 µM (inactive)	> 100 µM (inactive)	> 100 µM (inactive)	42 µM (inactive)	> 100 µM (inactive)	> 100 µM (inactive)	> 100 µM (inactive)	
Nc1ccccc1C(=O)NC(=O)Nc1ccc(Oc2ncc(Br)cn2)c(Cl)c1	< 0.01 µM (active)		< 0.01 µM (active)	0.0116 µM (active)	< 0.01	0.0109 µM (active)	0.217 µM (active)	< 0.01 µM (active)	< 0.01 µM (active)	0.0472 µM (active)	0.0108 µM (active)	0.438 µM (active)	0.0119 µM (active)	0.0182 µM (active)	< 0.01 µM (active)	< 0.01 µM (active)	0.0133 µM (active)	0.0247 µM (active)	0.014 µM (active)	< 0.01 µM (active)
CCCCCCCCCC(=O)CC(=O)c1c(O)cc(O)cc1O	25.6 µM (inactive)	34.3 µM (inactive)	26.6 µM (inactive)	18.8 µM (inactive)	18.2	13.6 µM (inactive)	20 µM (inactive)	18.1 µM (inactive)	39.1 µM (inactive)	16.2 µM (inactive)	17.3 µM (inactive)	19.4 µM (inactive)	17.3 µM (inactive)	16.1 µM (inactive)	19.5 µM (inactive)	15.3 µM (inactive)	20.6 µM (inactive)	22.6 µM (inactive)	15.5 µM (inactive)	
O=C1NC2c3c(I)sc(I)c3C(O)C2O1 (stereo not given)	> 100 µM (inactive)	52.8 µM (inactive)	> 100 µM (inactive)	> 100 µM (inactive)	> 100	> 100 µM (inactive)	> 100 µM (inactive)	> 100 µM (inactive)	> 100 µM (inactive)	> 100 µM (inactive)	> 100 µM (inactive)	> 100 µM (inactive)	> 100 µM (inactive)	> 100 µM (inactive)	> 100 µM (inactive)		> 100 µM (inactive)	> 100 µM (inactive)	> 100 µM (inactive)	> 100 µM (inactive)
CCCNc1ncnc2c1ncn2C	> 100 µM (inactive)	22.1 µM (inactive)	96.4 µM (inactive)	78.7 µM (inactive)	86.9	35.2 µM (inactive)	37.6 µM (inactive)	> 100 µM (inactive)	53.6 µM (inactive)	> 100 µM (inactive)	35.6 µM (inactive)		48.5 µM (inactive)	20.6 µM (inactive)	34.2 µM (inactive)	> 100 µM (inactive)	27.4 µM (inactive)	> 100 µM (inactive)	85.1 µM (inactive)	
O=S(=O)(c1ccccc1)c1ccc(-c2nc(-c3ccc4c(c3)Sc3ccccc3S4)cs2)cc1	> 100 µM (inactive)	41.9 µM (inactive)	> 100 µM (inactive)	35.5 µM (inactive)	> 100	15.9 µM (inactive)	20.7 µM (inactive)	> 100 µM (inactive)	61 µM (inactive)	67 µM (inactive)	11.2 µM (inactive)	> 100 µM (inactive)	71.9 µM (inactive)	> 100 µM (inactive)	49.5 µM (inactive)		> 100 µM (inactive)	11.7 µM (inactive)	> 100 µM (inactive)	> 100 µM (inactive)
CSc1nc(=O)c(C#N)c(-c2ccccc2)n1C1OC(COC(C)=O)C(OC(C)=O)C(OC(C)=O)C1OC(C)=O (stereo not given)	69.3 µM (inactive)	99.8 µM (inactive)	> 100 µM (inactive)	> 100 µM (inactive)	> 100	> 100 µM (inactive)	46.9 µM (inactive)	> 100 µM (inactive)	> 100 µM (inactive)	> 100 µM (inactive)	> 100 µM (inactive)	> 100 µM (inactive)	60.5 µM (inactive)	> 100 µM (inactive)	> 100 µM (inactive)	81.7 µM (inactive)	> 100 µM (inactive)	> 100 µM (inactive)	39.2 µM (inactive)	31.3 µM (inactive)
O=C(/C=C/c1ccccc1)Nc1ccccc1SCCCCl	25 µM (inactive)	10 µM (inactive)	15.6 µM (inactive)	21.6 µM (inactive)	13.4	15 µM (inactive)	3.67 µM (inactive)	3.78 µM (inactive)	4.4 µM (inactive)	> 33.7 µM (inactive)	3.56 µM (inactive)	34 µM (inactive)	16.5 µM (inactive)	27.4 µM (inactive)	8.57 µM (inactive)	19.3 µM (inactive)	8.93 µM (inactive)	19.1 µM (inactive)	7.48 µM (inactive)	10.2 µM (inactive)
C/C(=N/NC(=S)Nc1ccccc1Cl)c1cccc(/C(C)=N\NC(=S)Nc2ccccc2Cl)n1	29.6 µM (inactive)	9.79 µM (inactive)	56.8 µM (inactive)	> 100 µM (inactive)	15	> 100 µM (inactive)	> 100 µM (inactive)	7.24 µM (inactive)	15.1 µM (inactive)	> 100 µM (inactive)	54.7 µM (inactive)	> 100 µM (inactive)	11.3 µM (inactive)	> 100 µM (inactive)	16.6 µM (inactive)	12.4 µM (inactive)	> 100 µM (inactive)	82.4 µM (inactive)	44 µM (inactive)	5.47 µM (inactive)
N=C(/C=C/c1ccc(-c2cn3cc(/C=C/C(=N)N4CCOCC4)ccc3n2)cc1)N1CCOCC1	> 100 µM (inactive)		> 100 µM (inactive)	> 100 µM (inactive)	> 100	> 100 µM (inactive)	> 100 µM (inactive)	> 100 µM (inactive)	94 µM (inactive)	> 100 µM (inactive)	> 100 µM (inactive)	> 100 µM (inactive)	> 100 µM (inactive)	76.4 µM (inactive)	> 100 µM (inactive)	> 100 µM (inactive)	> 100 µM (inactive)	> 100 µM (inactive)	> 100 µM (inactive)	> 100 µM (inactive)
C/C=C(\C)C(=O)OC1/C=C(\C)CC/C=C(\C)CC2OC(=O)C(C)(OC(C)=O)C12 (stereo not given)	> 100 µM (inactive)	> 100 µM (inactive)	> 100 µM (inactive)	> 100 µM (inactive)	> 100	> 100 µM (inactive)	> 100 µM (inactive)	> 100 µM (inactive)	> 100 µM (inactive)	> 100 µM (inactive)	> 100 µM (inactive)	> 100 µM (inactive)	> 100 µM (inactive)	> 100 µM (inactive)	> 100 µM (inactive)	> 100 µM (inactive)	> 100 µM (inactive)	> 100 µM (inactive)		> 100 µM (inactive)
C=CCOc1ccc(C2C(C(=O)OCC)C(=O)CC(C)(O)C2C(=O)OCC)cc1OC (stereo not given)	> 100 µM (inactive)	> 100 µM (inactive)	> 100 µM (inactive)	> 100 µM (inactive)	> 100	> 100 µM (inactive)	> 100 µM (inactive)	> 100 µM (inactive)	> 100 µM (inactive)	> 100 µM (inactive)	> 100 µM (inactive)	> 100 µM (inactive)	> 100 µM (inactive)	> 100 µM (inactive)	> 100 µM (inactive)	> 100 µM (inactive)	> 100 µM (inactive)	> 100 µM (inactive)	> 100 µM (inactive)	> 100 µM (inactive)
CCOC(=O)Oc1cc2c(c(OC)c1OC)-c1ccc(OC)c(=O)cc1C(NC(C)=O)CC2 (stereo not given)	0.168 µM (active)	< 0.0122 µM (active)	0.0185 µM (active)	0.0176 µM (active)	0.252	0.0509 µM (active)	0.0968 µM (active)	0.0172 µM (active)	< 0.01 µM (active)	0.183 µM (active)	0.0187 µM (active)	2.26 µM (inactive)	0.0286 µM (active)	0.0141 µM (active)	0.0138 µM (active)	0.0116 µM (active)	0.034 µM (active)	0.0277 µM (active)	5.35 µM (inactive)	0.0468 µM (active)
COc1cc2c[n+](C)c3c4cc(OC)c(OC)cc4c(OCc4ccccc4)cc3c2cc1OC	4.72 µM (inactive)		0.263 µM (active)	2.1 µM (inactive)	> 100	1.86 µM (inactive)	0.966 µM (active)	2.1 µM (inactive)	0.578 µM (active)	0.231 µM (active)	1.32 µM (inactive)	> 100 µM (inactive)	1.91 µM (inactive)	5.28 µM (inactive)	0.114 µM (active)	0.838 µM (active)	0.265 µM (active)	0.0681 µM (active)	> 100 µM (inactive)	6.62 µM (inactive)
CCN(CC)CCNc1ccc2nnn3c4ccc([N+](=O)[O-])cc4c(=O)c1c23	4.47 µM (inactive)	4.91 µM (inactive)	4.85 µM (inactive)	25.8 µM (inactive)	6.93	2.28 µM (inactive)	11.3 µM (inactive)	6.28 µM (inactive)	3.67 µM (inactive)	3.34 µM (inactive)	10.8 µM (inactive)	13.2 µM (inactive)	4.76 µM (inactive)	6.15 µM (inactive)	3.35 µM (inactive)	3.62 µM (inactive)	7.05 µM (inactive)	6.43 µM (inactive)	3.44 µM (inactive)	3.93 µM (inactive)
